Results as given in ChEMBL document CHEMBL1671770, “Small molecule inhibition of protein depalmitoylation as a new approach towards downregulation of oncogenic Ras signalling” (Bioorg Med Chem, 2011).

Biological target: Acyl-protein thioesterase 1 (Homo sapiens, UniProt O75608)
Test: Inhibition of APT1

Sequence of Acyl-protein thioesterase 1 (O75608 whole entry): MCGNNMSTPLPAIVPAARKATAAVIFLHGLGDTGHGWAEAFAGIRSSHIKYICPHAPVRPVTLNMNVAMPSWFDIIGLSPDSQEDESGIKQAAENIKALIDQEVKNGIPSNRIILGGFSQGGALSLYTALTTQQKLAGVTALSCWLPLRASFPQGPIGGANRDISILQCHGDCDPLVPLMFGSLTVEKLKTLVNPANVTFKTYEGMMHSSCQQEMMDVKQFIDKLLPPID

## CCCCCCCCCC[C@@H]1C(=O)O[C@H]1CCc1ccc(OC)c(OC)c1 [PALMOSTATIN B]
  IC50: 670 nM
